Results: PubChem BioAssay AID248 (DTP/NCI, 2004)
Values joined by “and” are separate entries in the source; they are usually repeats but may differ in a detail not shown here. Equal entries are not always repeated. Inconclusive results and toxic doses are left out. Rule as the data show it: active = T/C of 150% or more; inactive = T/C below 125%.

Test system: L1210 leukemia ip in BDF1 mice, survival T/C
Test: NCI In Vivo Anticancer Drug Screen. Data for tumor model L1210 Leukemia (intraperitoneal) in B6D2F1 (BDF1) mice
Conditions: endpoint: mean survival time, higher = longer survival
How it was run: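 Mice bearing the transplanted tumor received compound or vehicle. Survival of the treated group was divided by that of the vehicle-treated control group to give the ratio.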

[1] = dose: 100.0 mg/kg/injection, schedule: Q01DX001 (ip), vehicle: carboxymethylcellulose (CMC)
[2] = dose: 200.0 mg/kg/injection, schedule: Q01DX001 (ip), vehicle: carboxymethylcellulose (CMC)
[3] = dose: 100.0 mg/kg/injection, schedule: Q01DX009 (ip), vehicle: saline with Tween-80
[4] = dose: 100.0 mg/kg/injection, schedule: Q04DX003 (ip), vehicle: saline with Tween-80
[5] = dose: 200.0 mg/kg/injection, schedule: Q01DX009 (ip), vehicle: saline with Tween-80
[6] = dose: 200.0 mg/kg/injection, schedule: Q04DX003 (ip), vehicle: saline with Tween-80
[7] = dose: 400.0 mg/kg/injection, schedule: Q01DX009 (ip), vehicle: saline with Tween-80
[8] = dose: 400.0 mg/kg/injection, schedule: Q04DX003 (ip), vehicle: saline with Tween-80
[9] = dose: 100.0 mg/kg/injection, schedule: Q01DX001 (ip), vehicle: Klucel (hydroxypropylcellulose) (HPC)
[10] = dose: 100.0 mg/kg/injection, schedule: Q01DX009 (ip), vehicle: Klucel (hydroxypropylcellulose) (HPC)
[11] = dose: 200.0 mg/kg/injection, schedule: Q01DX001 (ip), vehicle: Klucel (hydroxypropylcellulose) (HPC)
[12] = dose: 200.0 mg/kg/injection, schedule: Q01DX009 (ip), vehicle: Klucel (hydroxypropylcellulose) (HPC)
[13] = dose: 400.0 mg/kg/injection, schedule: Q01DX009 (ip), vehicle: Klucel (hydroxypropylcellulose) (HPC)
[14] = dose: 100.0 mg/kg/injection, schedule: Q01DX001 (ip), vehicle: saline
[15] = dose: 200.0 mg/kg/injection, schedule: Q01DX001 (ip), vehicle: saline
[16] = dose: 400.0 mg/kg/injection, schedule: Q01DX001 (ip), vehicle: saline
[17] = dose: 100.0 mg/kg/injection, schedule: Q04DX003 (ip), vehicle: Klucel (hydroxypropylcellulose) (HPC)
[18] = dose: 200.0 mg/kg/injection, schedule: Q04DX003 (ip), vehicle: Klucel (hydroxypropylcellulose) (HPC)
[19] = dose: 100.0 mg/kg/injection, schedule: Q04DX003 (ip), vehicle: saline
[20] = dose: 50.0 mg/kg/injection, schedule: Q01DX009 (ip), vehicle: Klucel (hydroxypropylcellulose) (HPC)

Measured: T/C

CCc1ccc(N=Nc2ccc(NC)cc2)cc1
inactive: [1] 98 % of control | [2] 93 % of control | dose: 400.0 mg/kg/injection, schedule: Q01DX001 (ip), vehicle: carboxymethylcellulose (CMC) 98 % of control

OC1CC2CCC1CC2 (configuration not stated)
inactive: [3] 100 % of control | [4] 89 % of control | [5] 97 % of control | [6] 96 % of control | [7] 102 % of control | [8] 86 % of control

CCOC(=O)C(Br)(C(=O)OCC)C(=O)c1cc(-c2ccc(Cl)c(Cl)c2)nc2c(Cl)cc(Cl)cc12
inactive: [9] 103 % of control | [10] 95 % of control | [11] 111 % of control | [12] 96 % of control | dose: 400.0 mg/kg/injection, schedule: Q01DX001 (ip), vehicle: Klucel (hydroxypropylcellulose) (HPC) 105 % of control | [13] 95 % of control

Cc1ccc(N)cc1Br
inactive: [14] 102 % of control | dose: 100.0 mg/kg/injection, schedule: Q01DX009 (ip), vehicle: saline 100 % of control | [15] 94 % of control | dose: 200.0 mg/kg/injection, schedule: Q01DX009 (ip), vehicle: saline 90 % of control | [16] 94 % of control | dose: 400.0 mg/kg/injection, schedule: Q01DX009 (ip), vehicle: saline 103 % of control

O=C(NNC(=O)NC1OCC(O)C(O)C1O)Nc1ccccc1 (configuration not stated)
inactive: [3] 97 % of control | [5] 100 % of control | [7] 97 % of control

Cc1ccc(NC(=O)N2CC2(C)C)cc1NC(=O)N1CC1(C)C
inactive: [17] 121 % of control | [18] 116 % of control | dose: 265.0 mg/kg/injection, schedule: Q04DX003 (ip), vehicle: Klucel (hydroxypropylcellulose) (HPC) 120 % of control | dose: 400.0 mg/kg/injection, schedule: Q04DX003 (ip), vehicle: Klucel (hydroxypropylcellulose) (HPC) 111 % of control | dose: 600.0 mg/kg/injection, schedule: Q04DX003 (ip), vehicle: Klucel (hydroxypropylcellulose) (HPC) 94 % of control

C#CCSC(=N)N
inactive: dose: 25.0 mg/kg/injection, schedule: Q01DX009 (ip), vehicle: saline 101 % of control | dose: 50.0 mg/kg/injection, schedule: Q01DX009 (ip), vehicle: saline 93 % of control | [19] 103 % of control

Cc1cc(C(=O)O)c(C(=O)O)c(=O)[nH]1
inactive: dose: 75.0 mg/kg/injection, schedule: Q01DX001 (ip), vehicle: other 111 % of control | dose: 150.0 mg/kg/injection, schedule: Q01DX001 (ip), vehicle: other 104 % of control | dose: 300.0 mg/kg/injection, schedule: Q01DX001 (ip), vehicle: other 102 % of control

CCOC(=O)c1ccc(NC(=O)CCl)cc1
inactive: dose: 25.0 mg/kg/injection, schedule: Q01DX015 (ip), vehicle: saline 98 % of control | dose: 50.0 mg/kg/injection, schedule: Q01DX001 (ip), vehicle: saline 106 % of control | dose: 50.0 mg/kg/injection, schedule: Q01DX015 (ip), vehicle: saline 100 % of control | [14] 104 % of control | dose: 100.0 mg/kg/injection, schedule: Q01DX015 (ip), vehicle: saline 98 % of control | [15] 101 % of control | [16] 97 % of control

O=c1cc(CN2CCN(CCO)CC2)[nH]c(=O)[nH]1
inactive: [19] 101 % of control | dose: 200.0 mg/kg/injection, schedule: Q04DX003 (ip), vehicle: saline 95 % of control | dose: 400.0 mg/kg/injection, schedule: Q04DX003 (ip), vehicle: saline 95 % of control

O=C(O)c1cccnc1Br
inactive: [4] 105 % of control | [6] 101 % of control | [8] 100 % of control

CCCCCCCC(=O)NCCCCC
inactive: dose: 50.0 mg/kg/injection, schedule: Q01DX001 (ip), vehicle: carboxymethylcellulose (CMC) 98 % of control | dose: 50.0 mg/kg/injection, schedule: Q01DX009 (ip), vehicle: carboxymethylcellulose (CMC) 97 % of control and 113 % of control | dose: 50.0 mg/kg/injection, schedule: Q04DX003 (ip), vehicle: carboxymethylcellulose (CMC) 103 % of control | [1] 105 % of control | dose: 100.0 mg/kg/injection, schedule: Q01DX009 (ip), vehicle: carboxymethylcellulose (CMC) 108 % of control | dose: 100.0 mg/kg/injection, schedule: Q04DX002 (ip), vehicle: carboxymethylcellulose (CMC) 94 % of control | dose: 100.0 mg/kg/injection, schedule: Q04DX003 (ip), vehicle: carboxymethylcellulose (CMC) 96 % of control | [2] 100 % of control | dose: 200.0 mg/kg/injection, schedule: Q01DX009 (ip), vehicle: carboxymethylcellulose (CMC) 104 % of control and 90 % of control | dose: 200.0 mg/kg/injection, schedule: Q04DX002 (ip), vehicle: carboxymethylcellulose (CMC) 96 % of control | dose: 200.0 mg/kg/injection, schedule: Q04DX003 (ip), vehicle: carboxymethylcellulose (CMC) 98 % of control | dose: 400.0 mg/kg/injection, schedule: Q04DX002 (ip), vehicle: carboxymethylcellulose (CMC) 96 % of control

NC(=S)Nc1c(Cl)cc(Cl)cc1Cl
inactive: dose: 25.0 mg/kg/injection, schedule: Q01DX009 (ip), vehicle: Klucel (hydroxypropylcellulose) (HPC) 94 % of control | [20] 108 % of control | [10] 94 % of control and 107 % of control

S=C(Nc1ccccc1)NC1CCC(CC2CCCCC2)CC1 (configuration not stated)
inactive: dose: 75.0 mg/kg/injection, schedule: Q01DX009 (ip), vehicle: Klucel (hydroxypropylcellulose) (HPC) 105 % of control | [17] 108 % of control | dose: 150.0 mg/kg/injection, schedule: Q01DX009 (ip), vehicle: Klucel (hydroxypropylcellulose) (HPC) 107 % of control | [18] 108 % of control

CCCCC1CN2CCc3cc(OC)c(OC)cc3C2CC1=O (configuration not stated)
inactive: [20] 96 % of control and 97 % of control | [10] 89 % of control and 103 % of control | [12] 94 % of control and 96 % of control | [13] 97 % of control

CN(C)C(=S)Oc1ccc(OC(=S)N(C)C)cc1
inactive: [4] 100 % of control | [6] 95 % of control | [8] 100 % of control

Cc1c(O)c(Br)c(-c2c(C)c(Br)c(C)c([N+](=O)[O-])c2C)c(O)c1Br
inactive: dose: 75.0 mg/kg/injection, schedule: Q04DX003 (ip), vehicle: Klucel (hydroxypropylcellulose) (HPC) 103 % of control | dose: 150.0 mg/kg/injection, schedule: Q04DX003 (ip), vehicle: Klucel (hydroxypropylcellulose) (HPC) 93 % of control | dose: 300.0 mg/kg/injection, schedule: Q04DX003 (ip), vehicle: Klucel (hydroxypropylcellulose) (HPC) 88 % of control

O=C1c2ccccc2C(=O)N1CCCCCCCCCCCCCCN1C(=O)c2ccccc2C1=O
inactive: [9] 94 % of control | [11] 94 % of control

CCCCN(C)N=Nc1n[nH]nc1C(N)=O
inactive: dose: 25.0 mg/kg/injection, schedule: Q01DX Z (ip), vehicle: carboxymethylcellulose (CMC) 118 % of control | dose: 50.0 mg/kg/injection, schedule: Q01DX Z (ip), vehicle: carboxymethylcellulose (CMC) 113 % of control | dose: 250.0 mg/kg/injection, schedule: Q01DX001 (ip), vehicle: carboxymethylcellulose (CMC) 123 % of control
